Earlier results on 2 compounds are cited in patent publication US20220215898A1, “METHODS AND […] FOR GENERATING A VIRTUAL MODEL OF XENOBIOTIC EXPOSURE USING TRANS[…] OF LIQUID BIOPSY SAMPLES” (Certara USA, Inc., priority 2019, published 2022).

For the data set the following is noted: compound files selected from the Simcyp library.

For the compound `Cc1nnc2n1-c1ccc(Cl)cc1C(c1ccccc1)=NC2` [alprazolam], the “clearance category of CYP3A substrate” value was “low clearance”.
`Cc1ncc2n1-c1ccc(Cl)cc1C(c1ccccc1F)=NC2` [midazolam]: the “clearance category of CYP3A substrate” value is “medium clearance”.
